Experiment [1] deals with α-isomaltosylglucosaccharide-forming enzyme. Nature of the experiment: Transfer-acceptor specificity, Enzyme of Strain C9. The format is biochemical, Bacillus globisporus C9. To be noted: acceptor 1.6%, PINE-DEX #100 donor 4%, one unit/g donor, 30° C., pH 6.0, 24 hours. On the procedure:
(§1) Using different saccharides, it was tested whether the saccharides were used as transferring-acceptors for the α-isomaltosylglucosaccharide-forming enzyme of the present invention. A solution of D-glucose, D-xylose, L-xylose, D-galactose, D-fructose, D-mannose, D-arabinose, D-fucose, D-psicose, L-sorbose, L-rhamnose, methyl-α-glucopyranoside, methyl-β-glucopyranoside, N-acetyl-glucosamine, sorbitol, trehalose, isomaltose, isomaltotriose, cellobiose, gentibiose, glycerol, maltitol, lactose, sucrose, α-cyclodextrin, β-cyclodextrin, γ-cyclodextrin, or L-ascorbic acid was prepared.
(§2) To each solution with a saccharide concentration of 1.6% was added “PINE-DEX #100”, a partial starch hydrolysate, as a saccharide donor, to give a concentration of 4%, and admixed with one unit/g saccharide donor, d.s.b., of either of purified specimens of α-isomaltosylglucosaccharide-forming enzyme from Bacillus globisporus C9 obtained by the method in Experiment 4-2, Bacillus globisporus C11 obtained by the method in Experiment 7-2, Bacillus globisporus N75 obtained by the method in Experiment 11-2, or Arthrobacter globiformis A19 obtained by the method in Experiment 15-2, and incubated at 30° C. and pH 6.0, except that pH 8.4 was used for the enzyme from Arthrobacter globiformis A19, for 24 hours. The reaction mixtures of the post-enzymatic reactions were analyzed on gas chromatography (abbreviated as “GLC” hereinafter) for monosaccharides and disaccharides as acceptors, and on HPLC for trisaccharides as acceptors to confirm whether these saccharides could be used as their transfer acceptors. In the case of performing GLC, the following apparatuses and conditions are used: GLC apparatus, “GC-16A” commercialized by Shimadzu Corporation, Tokyo, Japan; column, a stainless-steel column, 3 mm in diameter and 2 m in length, packed with 2% “SILICONE OV-17/[…]”, commercialized by GL Sciences Inc., Tokyo, Japan; carrier gas, nitrogen gas at a flow rate of 40 ml/min under temperature conditions of increasing from 160° C. to 320° C. at an increasing temperature rate of 7.5° C./min; and detection, a hydrogen flame ionization detector. In the case of HPLC analysis, the apparatuses and conditions used are: HPLC apparatus, “CCPD” commercialized by Tosoh Corporation, Tokyo, Japan; column, “ODS-AQ-303” commercialized by YMC Co., Ltd., Tokyo, Japan; eluent, water at a flow rate of 0.5 ml/min; and detection, a differential refractometer.

Experiment [2] shares this test system. Nature of the experiment: Transfer-acceptor specificity, Enzyme of Strain C11. In kind it is biochemical, Bacillus globisporus C11. As to conditions: acceptor 1.6%, PINE-DEX #100 donor 4%, one unit/g donor, 30° C., pH 6.0, 24 hours. Here is the method:
as §1, §2

For experiment [3] the test system is unchanged. Nature of the experiment: Transfer-acceptor specificity, Enzyme of Strain N75. In kind it is biochemical, Bacillus globisporus N75. As to conditions: acceptor 1.6%, PINE-DEX #100 donor 4%, one unit/g donor, 30° C., pH 6.0, 24 hours. On the procedure: as §1, §2
Experiment [4] has the same test system. The experiment in a line: Transfer-acceptor specificity, Enzyme of Strain A19. The format is biochemical, Arthrobacter globiformis A19. More on the design: key: −: no saccharide-transferred product was detected through transfer reaction to acceptor; ∀: a saccharide-transferred product was detected in an amount less than one percent through transfer reaction to acceptor; +: a saccharide-transferred product was detected in an amount over one percent but less than ten percent through transfer reaction to acceptor; ++: a saccharide-transferred product was detected in an amount over ten percent through transfer reaction to acceptor. As to conditions: acceptor 1.6%, PINE-DEX #100 donor 4%, one unit/g donor, 30° C., pH 8.4, 24 hours. Here is the method:
as §1, §2

Consider `O=C(CO)[C@@H](O)[C@H](O)[C@H](O)CO` [D-Fructose], for which the “Product of transferring reaction, Enzyme of Strain C9” value (“Product … of Strain C9” below) in experiment [1] is “+ (a saccharide-transferred product was detected in an amount over one percent but less than ten percent through transfer reaction to acceptor)”. The “Product of transferring reaction, Enzyme of Strain C11” value (“Product … of Strain C11” below) in experiment [2] was “+ (a saccharide-transferred product was detected in an amount over one percent but less than ten percent through transfer reaction to acceptor)”. The “Product of transferring reaction, Enzyme of Strain N75” value (“Product … of Strain N75” for short) in experiment [3] was “+ (a saccharide-transferred product was detected in an amount over one percent but less than ten percent through transfer reaction to acceptor)”. Besides, the “Product of transferring reaction, Enzyme of Stain A19” value (from here on “Product … of Stain A19”) in experiment [4] is given as “+ (a saccharide-transferred product was detected in an amount over one percent but less than ten percent through transfer reaction to acceptor)”.
Take `CO[C@@H]1O[C@H](CO)[C@@H](O)[C@H](O)[C@H]1O` [Methyl-β-glucopyranoside]: the “Product … of Strain C9” value in experiment [1] is listed as “++ (a saccharide-transferred product was detected in an amount over ten percent through transfer reaction to acceptor)”. For the same molecule, the “Product … of Strain C11” value in experiment [2] is “++ (a saccharide-transferred product was detected in an amount over ten percent through transfer reaction to acceptor)”. The “Product … of Strain N75” value in experiment [3] is “++ (a saccharide-transferred product was detected in an amount over ten percent through transfer reaction to acceptor)”. Moreover, the “Product … of Stain A19” value in experiment [4] is “++ (a saccharide-transferred product was detected in an amount over ten percent through transfer reaction to acceptor)”.
With `CO[C@H]1O[C@H](CO)[C@@H](O)[C@H](O)[C@H]1O` [Methyl-α-glucopyranoside], in experiment [1], the “Product … of Strain C9” value is “++ (a saccharide-transferred product was detected in an amount over ten percent through transfer reaction to acceptor)”. Moreover, in experiment [2], the “Product … of Strain C11” value is given as “++ (a saccharide-transferred product was detected in an amount over ten percent through transfer reaction to acceptor)”. In addition, in experiment [3], the “Product … of Strain N75” value is given as “++ (a saccharide-transferred product was detected in an amount over ten percent through transfer reaction to acceptor)”. The “Product … of Stain A19” value in experiment [4] was “++ (a saccharide-transferred product was detected in an amount over ten percent through transfer reaction to acceptor)”.
`C[C@@H](O)[C@H](O)[C@H](O)[C@@H](O)C=O` [D-Fucose]: in experiment [1], the “Product … of Strain C9” value is reported as “+ (a saccharide-transferred product was detected in an amount over one percent but less than ten percent through transfer reaction to acceptor)”. The “Product … of Strain C11” value in experiment [2] is “+ (a saccharide-transferred product was detected in an amount over one percent but less than ten percent through transfer reaction to acceptor)”. For the same molecule, the “Product … of Strain N75” value in experiment [3] is “+ (a saccharide-transferred product was detected in an amount over one percent but less than ten percent through transfer reaction to acceptor)”. Further, the “Product … of Stain A19” value in experiment [4] is “∀ (a saccharide-transferred product was detected in an amount less than one percent through transfer reaction to acceptor)”.
`O=C[C@H](O)[C@@H](O)[C@H](O)CO` [D-Xylose]: the “Product … of Strain C9” value in experiment [1] was “++ (a saccharide-transferred product was detected in an amount over ten percent through transfer reaction to acceptor)”. Moreover, the “Product … of Strain C11” value in experiment [2] is “++ (a saccharide-transferred product was detected in an amount over ten percent through transfer reaction to acceptor)”. The “Product … of Strain N75” value in experiment [3] is recorded as “++ (a saccharide-transferred product was detected in an amount over ten percent through transfer reaction to acceptor)”. The “Product … of Stain A19” value in experiment [4] is “+ (a saccharide-transferred product was detected in an amount over one percent but less than ten percent through transfer reaction to acceptor)”.
As to `O=C(CO)[C@@H](O)[C@H](O)[C@@H](O)CO` [L-Sorbose], the “Product … of Strain C9” value in experiment [1] was “+ (a saccharide-transferred product was detected in an amount over one percent but less than ten percent through transfer reaction to acceptor)”. The “Product … of Strain C11” value in experiment [2] was “+ (a saccharide-transferred product was detected in an amount over one percent but less than ten percent through transfer reaction to acceptor)”. Further, in experiment [3], the “Product … of Strain N75” value is on record as “+ (a saccharide-transferred product was detected in an amount over one percent but less than ten percent through transfer reaction to acceptor)”. Also, in experiment [4], the “Product … of Stain A19” value is “+ (a saccharide-transferred product was detected in an amount over one percent but less than ten percent through transfer reaction to acceptor)”.
Take `CC(=O)N[C@H]1C(O)O[C@H](CO)[C@@H](O)[C@@H]1O` (stereo partly drawn) [N-Acetyl-glucosamine]: in experiment [1], the “Product … of Strain C9” value was “+ (a saccharide-transferred product was detected in an amount over one percent but less than ten percent through transfer reaction to acceptor)”. In experiment [2], the “Product … of Strain C11” value is recorded as “+ (a saccharide-transferred product was detected in an amount over one percent but less than ten percent through transfer reaction to acceptor)”. Besides, in experiment [3], the “Product … of Strain N75” value is given as “+ (a saccharide-transferred product was detected in an amount over one percent but less than ten percent through transfer reaction to acceptor)”. The “Product … of Stain A19” value in experiment [4] was “−”.
As for `O=C(CO)[C@H](O)[C@H](O)[C@H](O)CO` [D-Psicose], in experiment [1], the “Product … of Strain C9” value is “+ (a saccharide-transferred product was detected in an amount over one percent but less than ten percent through transfer reaction to acceptor)”. Moreover, the “Product … of Strain C11” value in experiment [2] is recorded as “+ (a saccharide-transferred product was detected in an amount over one percent but less than ten percent through transfer reaction to acceptor)”. Also, the “Product … of Strain N75” value in experiment [3] is given as “+ (a saccharide-transferred product was detected in an amount over one percent but less than ten percent through transfer reaction to acceptor)”. Further, in experiment [4], the “Product … of Stain A19” value is recorded as “+ (a saccharide-transferred product was detected in an amount over one percent but less than ten percent through transfer reaction to acceptor)”.
For `O=C[C@H](O)[C@@H](O)[C@H](O)[C@H](O)CO` [D-Glucose, reference compound], the “Product … of Strain C9” value in experiment [1] was “+ (a saccharide-transferred product was detected in an amount over one percent but less than ten percent through transfer reaction to acceptor)”. In addition, the “Product … of Strain C11” value in experiment [2] was “+ (a saccharide-transferred product was detected in an amount over one percent but less than ten percent through transfer reaction to acceptor)”. For the same molecule, the “Product … of Strain N75” value in experiment [3] is reported as “+ (a saccharide-transferred product was detected in an amount over one percent but less than ten percent through transfer reaction to acceptor)”. The “Product … of Stain A19” value in experiment [4] is “+ (a saccharide-transferred product was detected in an amount over one percent but less than ten percent through transfer reaction to acceptor)”.

The values are drawn from patent publication US7811797B2, “α-isomaltosylglucosaccharide-forming enzyme, process and uses of the same” (Kabushiki Kaisha Hayashibara Seibutsu Kagaku Kenkyujo, priority 2000, dated 2010).
